Experimental data: ChEMBL document CHEMBL1157738, “Simocyclinone D8 turns on against Gram-negative bacteria in a clinical setting” (2010)
≈ marks a conversion by molar mass, not a printed value.

How the values were obtained:
Type in all cases: functional
Klebsiella pneumoniae [1] = assay: Antibacterial activity against Klebsiella pneumoniae isolate 16 expressing qnr B19 gene, GyrA D87G mutant after 24 hrs by twofold serial dilution method; settings: isolate 16, 24 h
Klebsiella pneumoniae [2] = assay: Antibacterial activity against Klebsiella pneumoniae isolate 204 expressing qnr B19 gene after 24 hrs by twofold serial dilution method; settings: Klebsiella pneumoniae, isolate 204, 24 h
Klebsiella pneumoniae [3] = assay: Antibacterial activity against Klebsiella pneumoniae isolate 172 expressing qnr B19 gene, GyrA D87G mutant after 24 hrs by twofold serial dilution method; settings: isolate 172, 24 h
Escherichia coli [4] = assay: Antibacterial activity against Escherichia coli isolate 21 after 24 hrs by twofold serial dilution method; settings: Escherichia coli, isolate 21, 24 h
Escherichia coli [5] = assay: Antibacterial activity against Escherichia coli isolate 13 after 24 hrs by twofold serial dilution method; settings: Escherichia coli, isolate 13, 24 h
Escherichia coli [6] = assay: Antibacterial activity against Escherichia coli isolate 7 after 24 hrs by twofold serial dilution method; settings: Escherichia coli, isolate 7, 24 h
Escherichia coli [7] = assay: Antibacterial activity against Escherichia coli Top10 after 24 hrs by twofold serial dilution method; settings: Escherichia coli, Top10, 24 h
Escherichia coli [8] = assay: Antibacterial activity against Escherichia coli HB101 after 24 hrs by twofold serial dilution method; settings: Escherichia coli, HB101, 24 h
Escherichia coli [9] = assay: Antibacterial activity against Escherichia coli JM109 after 24 hrs by twofold serial dilution method; settings: Escherichia coli, JM109, 24 h
Escherichia coli [10] = assay: Antibacterial activity against Escherichia coli JM110 after 24 hrs by twofold serial dilution method; settings: Escherichia coli, JM110, 24 h
Escherichia coli [11] = assay: Antibacterial activity against Escherichia coli XL-1Blue after 24 hrs by twofold serial dilution method; settings: Escherichia coli, XL-1Blue, 24 h
Staphylococcus aureus = assay: Antibacterial activity against Staphylococcus aureus after 24 hrs by twofold serial dilution method; settings: Staphylococcus aureus, 24 h
Klebsiella pneumoniae [12] = assay: Antibacterial activity against Klebsiella pneumoniae isolate 5 expressing qnr B19 gene, GyrA D87G mutant after 24 hrs by twofold serial dilution method; settings: isolate 5, 24 h
Klebsiella pneumoniae [13] = assay: Antibacterial activity against Klebsiella pneumoniae isolate 110 expressing qnr B19 gene, GyrA D87G mutant after 24 hrs by twofold serial dilution method; settings: isolate 110, 24 h
Klebsiella pneumoniae [14] = assay: Antibacterial activity against Klebsiella pneumoniae isolate 97 expressing qnr B19 gene after 24 hrs by twofold serial dilution method; settings: Klebsiella pneumoniae, isolate 97, 24 h
Escherichia coli [15] = assay: Antibacterial activity against Escherichia coli isolate 95 expressing GyrA S83L mutant after 24 hrs by twofold serial dilution method; settings: isolate 95, 24 h
Escherichia coli [16] = assay: Antibacterial activity against Escherichia coli isolate 115 expressing GyrA S83L mutant after 24 hrs by twofold serial dilution method; settings: isolate 115, 24 h
Escherichia coli [17] = assay: Antibacterial activity against Escherichia coli isolate 85 expressing GyrA S83L mutant after 24 hrs by twofold serial dilution method; settings: isolate 85, 24 h
Escherichia coli [18] = assay: Antibacterial activity against Escherichia coli isolate 24 after 24 hrs by twofold serial dilution method; settings: Escherichia coli, isolate 24, 24 h
Escherichia coli [19] = assay: Antibacterial activity against Escherichia coli isolate 41 after 24 hrs by twofold serial dilution method; settings: Escherichia coli, isolate 41, 24 h
Escherichia coli [20] = assay: Antibacterial activity against Escherichia coli isolate 191 expressing qnr S1 gene after 24 hrs by twofold serial dilution method; settings: Escherichia coli, isolate 191, 24 h
Escherichia coli [21] = assay: Antibacterial activity against Escherichia coli isolate 9 expressing qnr B19 gene, GyrA D87G, ParC S80I mutant after 24 hrs by twofold serial dilution method; settings: isolate 9, 24 h
Escherichia coli [22] = assay: Antibacterial activity against Escherichia coli isolate 50 expressing qnr B19 gene after 24 hrs by twofold serial dilution method; settings: Escherichia coli, isolate 50, 24 h
Escherichia coli [23] = assay: Antibacterial activity against Escherichia coli isolate 47 expressing qnr B19 gene after 24 hrs by twofold serial dilution method; settings: Escherichia coli, isolate 47, 24 h
Klebsiella pneumoniae [24] = assay: Antibacterial activity against Klebsiella pneumoniae isolate 173 after 24 hrs by twofold serial dilution method; settings: Klebsiella pneumoniae, isolate 173, 24 h
Klebsiella pneumoniae [25] = assay: Antibacterial activity against Klebsiella pneumoniae isolate 91 after 24 hrs by twofold serial dilution method; settings: Klebsiella pneumoniae, isolate 91, 24 h
Klebsiella pneumoniae [26] = assay: Antibacterial activity against Klebsiella pneumoniae isolate 134 after 24 hrs by twofold serial dilution method; settings: Klebsiella pneumoniae, isolate 134, 24 h
Klebsiella pneumoniae [27] = assay: Antibacterial activity against Klebsiella pneumoniae isolate 92 after 24 hrs by twofold serial dilution method; settings: Klebsiella pneumoniae, isolate 92, 24 h
Klebsiella pneumoniae [28] = assay: Antibacterial activity against Klebsiella pneumoniae isolate 370 expressing qnr B19 gene, GyrA D87G mutant after 24 hrs by twofold serial dilution method; settings: isolate 370, 24 h
Klebsiella pneumoniae [29] = assay: Antibacterial activity against Klebsiella pneumoniae isolate 328 expressing qnr B19 gene, GyrA D87G mutant after 24 hrs by twofold serial dilution method; settings: isolate 328, 24 h

Q: Which results are given for `O=C(O)c1cn(C2CC2)c2cc(N3CCNCC3)c(F)cc2c1=O` [CIPROFLOXACIN]?
A: MIC90 (Klebsiella pneumoniae [1]): 2 µg/mL (≈ 6.04 µM); MIC90 (Klebsiella pneumoniae [2]): 0.75 µg/mL (≈ 2.26 µM); MIC90 (Klebsiella pneumoniae [3]): < 0.25 µg/mL; MIC90 (Escherichia coli [4]): 4 µg/mL (≈ 12.1 µM); MIC90 (Escherichia coli [5]): > 4 µg/mL; MIC90 (Escherichia coli [6]): > 4 µg/mL; MIC90 (Escherichia coli [7]): < 0.25 µg/mL; MIC90 (Escherichia coli [8]): < 0.25 µg/mL; MIC90 (Escherichia coli [9]): > 4 µg/mL; MIC90 (Escherichia coli [10]): > 4 µg/mL; MIC90 (Escherichia coli [11]): > 4 µg/mL; MIC90 (Staphylococcus aureus): > 4 µg/mL; MIC90 (Klebsiella pneumoniae [12]): < 0.25 µg/mL; MIC90 (Klebsiella pneumoniae [13]): < 0.25 µg/mL; MIC90 (Klebsiella pneumoniae [14]): < 0.25 µg/mL; MIC90 (Escherichia coli [15]): 1 µg/mL (≈ 3.02 µM); MIC90 (Escherichia coli [16]): 0.5 µg/mL (≈ 1.51 µM); MIC90 (Escherichia coli [17]): 0.5 µg/mL (≈ 1.51 µM); MIC90 (Escherichia coli [18]): < 0.25 µg/mL; MIC90 (Escherichia coli [19]): < 0.25 µg/mL; MIC90 (Escherichia coli [20]): 1 µg/mL (≈ 3.02 µM); MIC90 (Escherichia coli [21]): > 4 µg/mL; MIC90 (Escherichia coli [22]): < 0.25 µg/mL; MIC90 (Escherichia coli [23]): < 0.25 µg/mL; MIC90 (Klebsiella pneumoniae [24]): > 4 µg/mL; MIC90 (Klebsiella pneumoniae [25]): > 4 µg/mL; MIC90 (Klebsiella pneumoniae [26]): < 0.25 µg/mL; MIC90 (Klebsiella pneumoniae [27]): < 0.25 µg/mL; MIC90 (Klebsiella pneumoniae [28]): > 4 µg/mL; MIC90 (Klebsiella pneumoniae [29]): > 4 µg/mL
